These results are taken from article PMC7019360, “Antihypertensive Effects of Virgin Olive Oil (Unfiltered) Low Molecular Weight Peptides with ACE Inhibitory Activity in Spontaneously Hypertensive Rats” (Nutrients, 2020).

Where two headings read alike, the source gives them in different places. Ends that are not written are not given here. Peptide text beside a SMILES is read from it. Where only a bound is given, the exact number is not on record here.

The target of series [1] is angiotensin-converting enzyme (ACE) (Homo sapiens, UniProt P12821). Put plainly: ACE inhibitory activity in vitro (IC50). To be noted: chemically synthesised peptides, method of ref 35 with modifications of ref 28, mean ± SD, read-out: ACEi Activity IC50 (µm) ± SD. The class given is biochemical. An excerpt:
The ACE inhibitory activity of the samples was studied using the methodology specified in [35], with some modifications. The ACE inhibitory activity is shown as IC50, or the concentration needed to inhibit the activity of the enzyme by 50%.

The nature of series [2]: Water solubility of synthetic peptide. The class given is physicochemical. To be noted: reason why the ACE activity was not determined.
In another series the test system is ACE. Particulars: bovine casein-derived peptide; cited from earlier work. An excerpt:
The process of development of high blood pressure in humans presents analogies with the development of hypertension in SHR. For this reason, the SHR model has been extensively used in the evaluation of food peptides with antihypertensive potential. […] It contains four dipeptides (DG, GG, GY, DG) with previously reported activity, h ...

A further series has as its system SHR. Particulars: bovine casein-derived peptide; cited from earlier work. An excerpt: The study of ACE inhibitor peptides in foods is a very active area of research and there are a few available data bases with information on peptide sequences and biological activity. We used the BIOPEP data base to assist with our selection of peptides because it uses previous published research providing information about the number of ACE inhibitor motifs of a peptide sequence and calculates the peptide's theoretical activity. Apart from the ACE inhibitory activity, the data base detected additional potential activities of our selected peptides, including antioxidant (Nos. 9 and 11), anti-th ... || The process of development of high blood pressure in humans presents analogies with the development of hypertension in SHR. For this reason, the SHR model has been extensively used in the evaluation of food peptides with antihypertensive potential. […] It contains four dipeptides (DG, GG, GY, DG) with previously reported activity, h ...

The test system of series [3] is spontaneously hypertensive rats (SHR). Put plainly: Antihypertensive activity in SHR, tail-cuff SBP after acute oral administration. It is filed as in vivo, rat. Particulars: oral Captopril 50 mg/kg BW, at 24 h. An excerpt: The antihypertensive effect of synthetic peptides No. 1 (RDGGYCC), No. 2 (LEEFCC), No. 3 (HCGCNTH) and No. 4 (CCGNAVPQ) was studied on the systolic blood pressure (SBP) and diastolic blood pressure (DBP) using the spontaneously hypertensive rat (SHR) animal model of hypertension. The tail-cuff method was used to measure SBP and DBP [36] as described in [28]. We selected a dose of synthetic peptides in the range described in previous studies of antihypertensive effects of peptides with ACE inhibitory activity. SBP and DBP data was always collected by the same technician. A period of training of two weeks was set to allow the animals to be habituated to this methodology. Forty-eight male SHR (age 19–21 weeks) were used. The average BW of the animals was 322.0 ± 6.0 g. The synthetic peptides were dissolved in water and were administered orally to the animals (about 1 mL per animal). The ACE inhibitor drug Captopril (Sigma, St. Louis, MO, USA) was used as a positive control and water was used as a negative control. The SHR were distributed randomly into 6 study groups (n = 8 per group) and received an oral dose of one of the four synthetic peptides (25 mg/kg of BW), or a dose of Captopril (50 mg/kg of BW) or water (1 mL). SBP and DBP were measured in the rats at baseline (time 0) and at 2, 4, 8 and 24 h post-administration of the peptides or controls. […]

angiotensin-converting enzyme (ACE), sequence (P12821 30-1306, species assumed): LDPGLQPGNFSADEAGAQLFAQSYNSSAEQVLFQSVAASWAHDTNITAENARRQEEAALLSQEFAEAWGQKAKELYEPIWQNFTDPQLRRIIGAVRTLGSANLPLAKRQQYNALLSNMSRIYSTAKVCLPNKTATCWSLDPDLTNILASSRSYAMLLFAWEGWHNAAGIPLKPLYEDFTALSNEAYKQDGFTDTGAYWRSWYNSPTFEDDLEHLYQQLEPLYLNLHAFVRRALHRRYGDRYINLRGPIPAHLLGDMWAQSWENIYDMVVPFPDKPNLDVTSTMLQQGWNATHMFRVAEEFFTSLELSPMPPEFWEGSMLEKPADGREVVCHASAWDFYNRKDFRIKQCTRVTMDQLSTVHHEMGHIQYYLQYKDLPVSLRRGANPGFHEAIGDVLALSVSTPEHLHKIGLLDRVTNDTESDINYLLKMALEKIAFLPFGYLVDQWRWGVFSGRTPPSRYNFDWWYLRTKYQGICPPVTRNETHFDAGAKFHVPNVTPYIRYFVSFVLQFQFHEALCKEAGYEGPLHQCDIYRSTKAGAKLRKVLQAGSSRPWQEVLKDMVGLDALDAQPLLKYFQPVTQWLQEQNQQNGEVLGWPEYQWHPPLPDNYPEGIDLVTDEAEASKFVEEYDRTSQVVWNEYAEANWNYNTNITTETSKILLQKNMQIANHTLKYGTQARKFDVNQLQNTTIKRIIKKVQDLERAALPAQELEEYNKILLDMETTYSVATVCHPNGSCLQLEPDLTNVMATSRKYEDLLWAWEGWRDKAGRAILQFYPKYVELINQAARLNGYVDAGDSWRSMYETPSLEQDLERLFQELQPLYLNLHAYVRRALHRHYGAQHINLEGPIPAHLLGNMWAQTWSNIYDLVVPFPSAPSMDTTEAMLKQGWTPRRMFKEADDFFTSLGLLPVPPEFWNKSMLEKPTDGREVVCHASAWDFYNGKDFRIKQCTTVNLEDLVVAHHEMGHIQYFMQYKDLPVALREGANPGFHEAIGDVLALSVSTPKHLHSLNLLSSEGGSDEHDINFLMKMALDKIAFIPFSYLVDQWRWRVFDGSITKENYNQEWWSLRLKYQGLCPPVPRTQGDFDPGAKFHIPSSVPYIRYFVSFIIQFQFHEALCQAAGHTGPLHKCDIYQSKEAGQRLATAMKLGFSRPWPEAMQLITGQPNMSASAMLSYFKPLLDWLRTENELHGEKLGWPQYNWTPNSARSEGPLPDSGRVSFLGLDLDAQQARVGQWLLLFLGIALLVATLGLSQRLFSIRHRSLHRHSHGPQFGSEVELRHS

Turning to EECHAH [SEQ No.9], the IC50 in series [1] (SD) is 11.8 ± 1.99 µM. For `C[C@H](NC(=O)[C@H](C)NC(=O)[C@@H](N)Cc1c[nH]c2ccccc12)C(=O)NCC(=O)N[C@@H](Cc1ccc(O)cc1)C(=O)N[C@@H](CS)C(=O)N[C@@H](CS)C(=O)O` [SEQ No.8] (H-WAAGYCC-OH), the IC50 in series [1] (SD) amounted to 6.88 ± 0.3 µM. On the same count and under the same terms, under LALAPTN [SEQ No.14] stands 135 ± 13.5 µM. For YEAYPS [SEQ No.21], the IC50 in series [1] was over 460 µM. For `C[C@@H](O)[C@H](NC(=O)[C@H](CC(N)=O)NC(=O)[C@H](CS)NC(=O)CNC(=O)[C@H](CS)NC(=O)[C@@H](N)Cc1c[nH]cn1)C(=O)N[C@@H](Cc1c[nH]cn1)C(=O)O` [SEQ No.3] (H-HCGCNTH-OH), the IC50 in series [1] (SD) was found to be 2.58 ± 0.26 µM. Take `CC(C)C[C@H](NC(=O)[C@@H]1CCCN1C(=O)[C@H](CC(=O)O)NC(=O)[C@H](CS)NC(=O)CNC(=O)[C@H](CS)NC(=O)CNC(=O)[C@@H](N)Cc1ccc(O)cc1)C(=O)O` [SEQ No.6] (H-YGCGCDPL-OH): in series [1] (SD), the IC50 was 1.64 ± 0.02 µM. In the case of EAPGGYDD [SEQ No.19], the IC50 in series [1] was over 405 µM. With “LQFCCY [SEQ No.17, synthetic peptide LQFCCY from olive oil extract]”, the Water solubility result in series [2] is reported as “not water soluble”. As to `CC(C)[C@H](NC(=O)[C@H](C)NC(=O)[C@H](CC(N)=O)NC(=O)CNC(=O)[C@H](CS)NC(=O)[C@@H](N)CS)C(=O)N1CCC[C@H]1C(=O)N[C@@H](CCC(N)=O)C(=O)O` [SEQ No.4] (H-CCGNAVPQ-OH), the IC50 in series [1] (SD) turned out to be 39.6 ± 2.09 µM. As for KVLPVPQ, the “In vitro ACE inhibitory activity” value in the series with ACE is “low in vitro ACE inhibitory activity”. Moreover, the “SBP reducing effect in SHR” value in the series with SHR is “high SBP reducing effect”. As to LEFTSSY [SEQ No.12], the IC50 in series [1] (SD) was found to be 107 ± 14.7 µM.

`CC(C)C[C@H](N)C(=O)N[C@@H](CCC(=O)O)C(=O)N[C@@H](CCC(=O)O)C(=O)N[C@@H](Cc1ccccc1)C(=O)N[C@@H](CS)C(=O)N[C@@H](CS)C(=O)O` [SEQ No.2] (H-LEEFCC-OH): the IC50 in series [1] (SD) was found to be 1.85 ± 0.16 µM. LALSAPVP [SEQ No.16]: in series [1] (SD), the IC50 amounted to 305 ± 10.9 µM. On to MSMAPY [SEQ No.23], for which the IC50 in series [1] is over 480 µM. As for YMHCYF [SEQ No.7], in series [1] (SD), the IC50 amounted to 3.2 ± 0.23 µM.

In the case of `N=C(N)NCCC[C@H](N)C(=O)N[C@@H](CC(=O)O)C(=O)NCC(=O)NCC(=O)N[C@@H](Cc1ccc(O)cc1)C(=O)N[C@@H](CS)C(=O)N[C@@H](CS)C(=O)O` [SEQ No.1] (H-RDGGYCC-OH), the IC50 in series [1] (SD) worked out at 0.84 ± 0.02 µM.

Take `CC(C)C[C@H](NC(=O)[C@H](CC(=O)O)NC(=O)[C@H](CS)NC(=O)CNC(=O)[C@H](CS)NC(=O)CNC(=O)[C@@H](N)Cc1ccc(O)cc1)C(=O)N1CCC[C@H]1C(=O)O` [SEQ No.5] (H-YGCGCDLP-OH): in series [1] (SD), the IC50 turned out to be 3.51 ± 0.21 µM. On the same count and under the same terms, under RPVPPVF [SEQ No.15] stands 230 ± 36.5 µM. For KRRPPTT [SEQ No.18], in series [1], the IC50 is over 390 µM. `C[C@H](CS)C(=O)N1CCC[C@H]1C(=O)O` [Captopril]: the “Time course of the antihypertensive effect (SBP)” value in series [3] is “returned to basal levels”.

One may read the IC50 as the midpoint of a concentration-inhibition curve.
